{
  "source": "paper PMC5224920",
  "about": "“Assessing the mechanism and therapeutic potential of modulators of the human Mediator complex-associated protein kinases” (eLife, 2016)",
  "system": "12 single or co-culture in vitro tissue models of primary cells",
  "assay": "Culture/co-culture cell model panel, extracellular biomarkers (DiscoveRx); on CCL2/MCP-1: reference of the scale not given here; on CD38: reference of the scale not given here; on CD40: reference of the scale not given here; on CD69: reference of the scale not given here; on CXCL8/IL-8: reference of the scale not given here; on CXCL9/MIG: reference of the scale not given here; on IL-1alpha: reference of the scale not given here; on M-CSF: reference of the scale not given here; on PBMC Cytotoxicity: reference of the scale not given here",
  "format": "cell-based, human",
  "key": {"[1]": {"conditions": "/Mphg Huvec+macrophages, 1.00E0 nM"}, "[2]": {"conditions": "/Mphg Huvec+macrophages, 1.00E1 nM"}, "[3]": {"conditions": "/Mphg Huvec+macrophages, 1.00E2 nM"}, "[4]": {"conditions": "/Mphg Huvec+macrophages, 1.00E3 nM"}, "[5]": {"conditions": "/Mphg Huvec+macrophages, 1.00E4 nM"}},
  "data": [
    {"smiles": "Cn1ncc2cc(-c3cnc(N)c(Cl)c3N3CCC4(CCNC4=O)CC3)ccc21", "note": "[CMPD 3]", "values": [
      {"measurement": "CCL2/MCP-1", "setting": "/HDFNo, 1.00E4 nM", "result": 0.044},
      {"measurement": "CD54/ICAM-1", "setting": "/HDFNo, 1.00E4 nM", "result": -0.029},
      {"measurement": "CD106/VCAM-1", "setting": "/HDFNo, 1.00E4 nM", "result": 0.030},
      {"measurement": "Collagen I", "setting": "/HDFNo, 1.00E4 nM", "result": 0.106},
      {"measurement": "Collagen III", "setting": "/HDFNo, 1.00E4 nM", "result": 0.143},
      {"measurement": "CCL2/MCP-1", "setting": "[1]", "result": 0.039},
      {"measurement": "CCL3/MIP-1alpha", "setting": "[1]", "result": 0.008},
      {"measurement": "CD40", "setting": "[1]", "result": 0.007},
      {"measurement": "CD69", "setting": "[1]", "result": 0.028},
      {"measurement": "CD106/VCAM-1", "setting": "[1]", "result": 0.039},
      {"measurement": "CXCL8/IL-8", "setting": "[1]", "result": 0.039},
      {"measurement": "IL-1alpha", "setting": "[1]", "result": 0.034},
      {"measurement": "M-CSF", "setting": "[1]", "result": -0.015},
      {"measurement": "SRB", "setting": "[1]", "result": -0.00253},
      {"measurement": "SRB-Mphg", "setting": "[1]", "result": 0.009},
      {"measurement": "sIL-10", "setting": "[1]", "result": 0.013},
      {"measurement": "CCL2/MCP-1", "setting": "[2]", "result": -0.0006},
      {"measurement": "CCL3/MIP-1alpha", "setting": "[2]", "result": -0.011},
      {"measurement": "CD40", "setting": "[2]", "result": -0.026},
      {"measurement": "CD69", "setting": "[2]", "result": 0.018},
      {"measurement": "CD106/VCAM-1", "setting": "[2]", "result": 0.030},
      {"measurement": "CXCL8/IL-8", "setting": "[2]", "result": -0.00563},
      {"measurement": "IL-1alpha", "setting": "[2]", "result": 0.012},
      {"measurement": "M-CSF", "setting": "[2]", "result": -0.035},
      {"measurement": "SRB", "setting": "[2]", "result": -0.012},
      {"measurement": "SRB-Mphg", "setting": "[2]", "result": 0.002},
      {"measurement": "sIL-10", "setting": "[2]", "result": 0.075},
      {"measurement": "CCL2/MCP-1", "setting": "[3]", "result": -0.061},
      {"measurement": "CCL3/MIP-1alpha", "setting": "[3]", "result": -0.020},
      {"measurement": "CD40", "setting": "[3]", "result": 0.012},
      {"measurement": "CD69", "setting": "[3]", "result": 0.043},
      {"measurement": "CD106/VCAM-1", "setting": "[3]", "result": 0.019},
      {"measurement": "CXCL8/IL-8", "setting": "[3]", "result": -0.007},
      {"measurement": "IL-1alpha", "setting": "[3]", "result": 0.025},
      {"measurement": "M-CSF", "setting": "[3]", "result": -0.036},
      {"measurement": "SRB", "setting": "[3]", "result": -0.017},
      {"measurement": "SRB-Mphg", "setting": "[3]", "result": 0.012},
      {"measurement": "sIL-10", "setting": "[3]", "result": "-8.75e-5"},
      {"measurement": "CCL2/MCP-1", "setting": "[4]", "result": -0.073},
      {"measurement": "CCL3/MIP-1alpha", "setting": "[4]", "result": -0.030},
      {"measurement": "CD40", "setting": "[4]", "result": -0.015},
      {"measurement": "CD69", "setting": "[4]", "result": 0.039},
      {"measurement": "CD106/VCAM-1", "setting": "[4]", "result": -0.014},
      {"measurement": "CXCL8/IL-8", "setting": "[4]", "result": -0.034},
      {"measurement": "IL-1alpha", "setting": "[4]", "result": -0.038},
      {"measurement": "M-CSF", "setting": "[4]", "result": -0.070},
      {"measurement": "SRB", "setting": "[4]", "result": -0.017},
      {"measurement": "SRB-Mphg", "setting": "[4]", "result": -0.00429},
      {"measurement": "sIL-10", "setting": "[4]", "result": -0.159},
      {"measurement": "CCL2/MCP-1", "setting": "[5]", "result": -0.116},
      {"measurement": "CCL3/MIP-1alpha", "setting": "[5]", "result": 0.039},
      {"measurement": "CD40", "setting": "[5]", "result": -0.005},
      {"measurement": "CD69", "setting": "[5]", "result": 0.023},
      {"measurement": "CD106/VCAM-1", "setting": "[5]", "result": 0.022},
      {"measurement": "CXCL8/IL-8", "setting": "[5]", "result": 0.007},
      {"measurement": "IL-1alpha", "setting": "[5]", "result": -0.039},
      {"measurement": "M-CSF", "setting": "[5]", "result": 0.009},
      {"measurement": "SRB", "setting": "[5]", "result": -0.059},
      {"measurement": "SRB-Mphg", "setting": "[5]", "result": -0.013},
      {"measurement": "sIL-10", "setting": "[5]", "result": -0.238},
      {"measurement": "CCL2/MCP-1", "setting": "/TH2, 1.00E0 nM", "result": 0.045},
      {"measurement": "CCL26/Eotaxin-3", "setting": "/TH2, 1.00E0 nM", "result": -0.045},
      {"measurement": "CD38", "setting": "/TH2, 1.00E0 nM", "result": 0.012},
      {"measurement": "CD40", "setting": "/TH2, 1.00E0 nM", "result": -0.010},
      {"measurement": "CD69", "setting": "/TH2, 1.00E0 nM", "result": -0.0036},
      {"measurement": "CD87/uPAR", "setting": "/TH2, 1.00E0 nM", "result": -0.045},
      {"measurement": "CD106/VCAM-1", "setting": "/TH2, 1.00E0 nM", "result": 0.030},
      {"measurement": "CXCL8/IL-8", "setting": "/TH2, 1.00E0 nM", "result": 0.048},
      {"measurement": "CXCL9/MIG", "setting": "/TH2, 1.00E0 nM", "result": 0.020},
      {"measurement": "Collagen IV", "setting": "/TH2, 1.00E0 nM", "result": 0.013},
      {"measurement": "PBMC Cytotoxicity", "setting": "/TH2, 1.00E0 nM", "result": -0.00216},
      {"measurement": "SRB", "setting": "/TH2, 1.00E0 nM", "result": -0.019},
      {"measurement": "sIL-17A", "setting": "/TH2, 1.00E0 nM", "result": 0.036},
      {"measurement": "sIL-17F", "setting": "/TH2, 1.00E0 nM", "result": -0.022},
      {"measurement": "CCL2/MCP-1", "setting": "/TH2, 1.00E1 nM", "result": 0.002},
      {"measurement": "CCL26/Eotaxin-3", "setting": "/TH2, 1.00E1 nM", "result": -0.124},
      {"measurement": "CD38", "setting": "/TH2, 1.00E1 nM", "result": -0.011},
      {"measurement": "CD40", "setting": "/TH2, 1.00E1 nM", "result": -0.078},
      {"measurement": "CD69", "setting": "/TH2, 1.00E1 nM", "result": -0.011},
      {"measurement": "CD87/uPAR", "setting": "/TH2, 1.00E1 nM", "result": -0.094},
      {"measurement": "CD106/VCAM-1", "setting": "/TH2, 1.00E1 nM", "result": 0.034},
      {"measurement": "CXCL8/IL-8", "setting": "/TH2, 1.00E1 nM", "result": -0.056},
      {"measurement": "CXCL9/MIG", "setting": "/TH2, 1.00E1 nM", "result": 0.00749},
      {"measurement": "Collagen IV", "setting": "/TH2, 1.00E1 nM", "result": 0.029},
      {"measurement": "PBMC Cytotoxicity", "setting": "/TH2, 1.00E1 nM", "result": -0.00148},
      {"measurement": "SRB", "setting": "/TH2, 1.00E1 nM", "result": -0.057},
      {"measurement": "sIL-17A", "setting": "/TH2, 1.00E1 nM", "result": 0.095},
      {"measurement": "sIL-17F", "setting": "/TH2, 1.00E1 nM", "result": -0.033},
      {"measurement": "CCL2/MCP-1", "setting": "/TH2, 1.00E2 nM", "result": -0.036},
      {"measurement": "CCL26/Eotaxin-3", "setting": "/TH2, 1.00E2 nM", "result": -0.132},
      {"measurement": "CD38", "setting": "/TH2, 1.00E2 nM", "result": -0.00367},
      {"measurement": "CD40", "setting": "/TH2, 1.00E2 nM", "result": -0.095},
      {"measurement": "CD69", "setting": "/TH2, 1.00E2 nM", "result": -0.007},
      {"measurement": "CD87/uPAR", "setting": "/TH2, 1.00E2 nM", "result": -0.133},
      {"measurement": "CD106/VCAM-1", "setting": "/TH2, 1.00E2 nM", "result": 0.023},
      {"measurement": "CXCL8/IL-8", "setting": "/TH2, 1.00E2 nM", "result": -0.038},
      {"measurement": "CXCL9/MIG", "setting": "/TH2, 1.00E2 nM", "result": 0.008}
    ]}
  ]
}
